# Results from US20200368247A1, “CENICRIVIROC FOR THE TREATMENT OF FIBROSIS” (Tobira Therapeutics, Inc., priority 2014, published 2020).
# Assays:
# CCR5 [1] = target: T1, CCR5 (Homo sapiens, UniProt P51681); assay: Inhibition of ligand binding to CCR5-expressing CHO cells
# CCR2 = target: T2, CCR2 (Homo sapiens, UniProt P41597); assay: CCR2 receptor occupancy / MCP-1-induced CCR2 internalization in PBMCs, flow cytometry; format: cell-based
# T2 construct: endogenous in cells; host or cells: monocytes within PBMCs from HIV+ and HIV- subjects
# T2 sequence (P41597 1-360 isoform P41597-2): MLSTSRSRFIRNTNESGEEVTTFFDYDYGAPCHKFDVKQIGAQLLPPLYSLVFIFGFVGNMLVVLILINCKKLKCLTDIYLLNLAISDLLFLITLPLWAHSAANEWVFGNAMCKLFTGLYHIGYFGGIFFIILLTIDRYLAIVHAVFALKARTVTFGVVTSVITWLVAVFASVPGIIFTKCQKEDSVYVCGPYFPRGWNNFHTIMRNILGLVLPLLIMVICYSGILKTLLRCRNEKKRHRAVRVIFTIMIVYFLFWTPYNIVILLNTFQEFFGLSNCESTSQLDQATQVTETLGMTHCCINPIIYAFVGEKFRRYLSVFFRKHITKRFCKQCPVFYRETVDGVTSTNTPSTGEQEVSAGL
# Protocol: (§1) The capacity of each drug to inhibit CCR5 or CCR2 internalization was evaluated. Cell-surface expression of CCR5 and CCR2 was assessed by flow cytometry, and fluorescence values were converted into molecules of equivalent soluble fluorescence (MESF).
# CCR5 [2] = target: T1, CCR5; assay: CCR5 receptor occupancy / RANTES-induced CCR5 internalization in PBMCs, flow cytometry; format: cell-based; conditions: at saturating concentration
# Protocol: as §1
# HIV-1 BaL = assay: PM-1 cells exposed to HIV-1 BaL: virus in culture fluids (qRT-PCR, p24) and intracellular strong-stop DNA; format: cell-based; conditions: 4 hrs
# From the text: Cells. PM-1 cells that express CD4, CCR5, and CXCR4 were maintained in RPMI-1640 medium containing 10% fetal bovine serum (R10 medium) at 37 C, 5% CO2. 293T cells used for transfection were maintained in DMEM at 10% FBS, L-glutamine, and antibiotics (D10 medium) at 37 C, 5% CO2. Virus Stocks. HIV-1 BaL virus was produced by transfecting 293T cells with the plasmid pWT/BaL. Lipofectamine 2000 was used as a transfection agent. Culture supernatants were collected at 48 hrs post-transfection, filtered through a 0.45 μm pore filter, and treated with 50 units of benzonase per ml of virus stock for 20 minutes at 37 C to remove contaminating plasmid DNA. […]
# Both drugs were incubated with PM-1 cells for 1 hr at 37 C prior to the addition of virus. […] Viral adsorption was measured in the no-drug controls, whereby 500 ng of p24 Ag of HIV-1 Bal were added per 5×10^5 PM-1 cells that were pre-incubated at 37 C for 1 hr in the absence of drug treatment. […] Supernatant viral loads were measured using quantitative real-time reverse transcription PCR (qRT-PCR) with the primers US1SSF (5′-ΔΔ[…]-3′), US1SSR (5′-[…]-3′) and US1SS probe (5′-(FAM) […]) and the Invitrogen qRT-PCR Supermix Kit. […] RNA copy number was quantified by use of 10-fold serial dilutions of pBaL/wt to generate standard curves for each assay and calibrated against samples with known copy numbers from previous studies. […]
# T1 sequence (P51681 whole entry): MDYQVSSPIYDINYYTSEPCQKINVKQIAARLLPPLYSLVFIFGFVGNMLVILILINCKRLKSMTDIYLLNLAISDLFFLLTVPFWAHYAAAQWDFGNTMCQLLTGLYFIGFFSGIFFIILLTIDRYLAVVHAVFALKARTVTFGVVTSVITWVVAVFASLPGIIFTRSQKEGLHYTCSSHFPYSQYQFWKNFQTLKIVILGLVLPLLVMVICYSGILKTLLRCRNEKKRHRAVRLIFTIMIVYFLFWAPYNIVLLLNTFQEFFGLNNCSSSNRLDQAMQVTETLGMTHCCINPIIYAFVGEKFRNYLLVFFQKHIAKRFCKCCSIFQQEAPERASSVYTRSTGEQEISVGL
compound,measurement,setting,value
CCCCOCCOc1ccc(-c2ccc3c(c2)C=C(C(=O)Nc2ccc(S(=O)(=O)Cc4cncn4CCC)cc2)CCCN3CC(C)C)cc1 [M-I],IC50 relative to the IC50 of CVC,CCR5 [1]; RANTES binding to CCR5-expressing cells,approximately 2 fold
"CSc1ccc(C(=O)N[C@@H]2CCCC[C@@H]2NC(=O)CNC(=O)c2cc(C(F)(F)F)ccc2NC(=O)NC(C)C)cc1 [BMS-22, reference compound]",concentration required to reach >80% receptor occupancy,"CCR2; CCR2, average",18 nM
same,CCR2 cell-surface expression,"CCR2; in the absence of MCP-1, monocytes",slightly increased
Maraviroc [MVC],CCR5 receptor occupancy,CCR5 [2]; CD4+ T cells,~86%
same,CCR5 receptor occupancy,CCR5 [2]; CD8+ T cells,~87%
same,p24 antigen level in culture fluids,"HIV-1 BaL; CVC 20 nM, MVC 50 nM, baseline 506",520 ng/mL
same,relative intracellular strong-stop HIV DNA level compared to no drug control,HIV-1 BaL; PM-1 cells,0.02
CCCCOCCOc1ccc(-c2ccc3c(c2)C=C(C(=O)Nc2ccc(SC)cc2)CCCN3CC(C)C)cc1 [M-II],"IC50, inhibition of binding of RANTES to CCR5-expressing cells",CCR5 [1]; CHO cells,no effect
